Where two headings read alike, the source gives them in different places. Numbered stars: 1 amine (or outer) side, 2 acyl side, 3 side chain; on linkers, the order of the positions; unused ones are H or OH. Bridge positions count the residues as written; N and C are the ends. Peptide text beside a SMILES is read from it. * marks the point of attachment. Phenylene(1,4-NHCOCH2)2 = O=C(C[*:1])Nc1ccc(NC(=O)C[*:2])cc1; 5FAM = O=C1OC2(c3ccc(O)cc3Oc3cc(O)ccc32)c2ccc(C(=O)*)cc21
Legend:
[1] = tested on: Expi293 cells; experiment: Measurement of the Cell Association of Helicons (mass spectrometry quantification in cells after treatment and wash); type: cell-based; conditions: percentage of Helicons in cells after treatment and wash, 22 hours, n = 2, mean ± SD
Protocol: All samples were analyzed using mass spectrometry.

[2] = tested on: Expi293 cells; experiment: CellTiter-Glo cell health (ATP levels) during cell association assay; type: cell-based; conditions: reflective of cell health, luminescence Tfinal (22 hours) / Tinitial
[3] = molecular target: T1, beta-catenin (Homo sapiens, UniProt P35222); experiment: KD (μM, SPR)
T1 construct: 10 nM full-length β-catenin (Uniprot ID P35222); 6×His-thrombin-T7-TEV (N); made in house; host or cells: E. coli BL21 (DE3) pLysS
T1 sequence (P35222 2-781 limits assumed): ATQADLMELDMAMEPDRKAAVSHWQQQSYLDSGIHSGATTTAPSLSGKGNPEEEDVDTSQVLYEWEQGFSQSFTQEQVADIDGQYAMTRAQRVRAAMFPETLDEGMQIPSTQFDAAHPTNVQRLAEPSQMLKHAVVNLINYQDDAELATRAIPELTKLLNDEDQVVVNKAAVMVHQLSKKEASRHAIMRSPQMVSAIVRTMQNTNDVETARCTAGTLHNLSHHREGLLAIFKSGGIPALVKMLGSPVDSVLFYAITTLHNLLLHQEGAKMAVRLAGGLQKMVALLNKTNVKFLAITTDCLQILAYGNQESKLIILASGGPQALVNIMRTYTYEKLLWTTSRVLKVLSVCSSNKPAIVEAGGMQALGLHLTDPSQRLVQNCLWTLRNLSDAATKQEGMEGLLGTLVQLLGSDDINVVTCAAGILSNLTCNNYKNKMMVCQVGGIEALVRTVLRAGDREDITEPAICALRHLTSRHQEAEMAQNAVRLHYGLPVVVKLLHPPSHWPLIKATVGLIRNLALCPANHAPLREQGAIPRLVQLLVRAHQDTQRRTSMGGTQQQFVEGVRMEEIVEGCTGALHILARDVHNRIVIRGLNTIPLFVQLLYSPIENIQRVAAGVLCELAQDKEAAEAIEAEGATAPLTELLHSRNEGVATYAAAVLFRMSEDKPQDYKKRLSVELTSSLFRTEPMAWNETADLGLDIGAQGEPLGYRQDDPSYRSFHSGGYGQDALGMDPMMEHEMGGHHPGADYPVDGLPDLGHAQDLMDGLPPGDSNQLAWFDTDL

[4] = molecular target: T2, β-catenin:MDM4 complex (Homo sapiens, UniProt O15151+P35222, C17S); experiment: FP analysis of the β-catenin:MDM4 complex; type: biochemical; conditions: direct FP assay
T2 construct: 6×His-yBBr-TEV (N); 6×His-yBBr-3C (N, cleaved yes); made in house; host or cells: E. coli BL21 (DE3) pLysS (beta-catenin); E. coli BL21 (DE3) (MDM4)
T2 sequence (P35222 134-665): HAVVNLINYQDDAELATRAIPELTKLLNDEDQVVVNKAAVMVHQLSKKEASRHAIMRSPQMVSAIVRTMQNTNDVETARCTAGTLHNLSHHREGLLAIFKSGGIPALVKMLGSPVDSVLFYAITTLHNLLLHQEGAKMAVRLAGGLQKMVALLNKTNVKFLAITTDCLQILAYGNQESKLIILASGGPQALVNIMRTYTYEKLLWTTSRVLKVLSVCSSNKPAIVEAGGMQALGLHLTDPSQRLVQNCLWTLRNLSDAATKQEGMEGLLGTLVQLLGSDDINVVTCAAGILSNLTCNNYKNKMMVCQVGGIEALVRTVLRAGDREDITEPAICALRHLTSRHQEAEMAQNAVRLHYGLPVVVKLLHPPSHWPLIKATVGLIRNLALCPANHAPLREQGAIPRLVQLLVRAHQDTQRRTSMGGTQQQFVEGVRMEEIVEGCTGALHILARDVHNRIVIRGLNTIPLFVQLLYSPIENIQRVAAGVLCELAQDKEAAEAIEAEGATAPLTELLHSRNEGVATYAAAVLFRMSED
T2 sequence (O15151 14-111 C17S): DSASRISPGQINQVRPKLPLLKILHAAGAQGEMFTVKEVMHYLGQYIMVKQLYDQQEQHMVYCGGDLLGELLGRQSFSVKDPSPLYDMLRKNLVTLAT

[5] = molecular target: PD-L1 (Homo sapiens, UniProt Q9NZQ7)
Sequence of PD-L1 (Q9NZQ7 18-239): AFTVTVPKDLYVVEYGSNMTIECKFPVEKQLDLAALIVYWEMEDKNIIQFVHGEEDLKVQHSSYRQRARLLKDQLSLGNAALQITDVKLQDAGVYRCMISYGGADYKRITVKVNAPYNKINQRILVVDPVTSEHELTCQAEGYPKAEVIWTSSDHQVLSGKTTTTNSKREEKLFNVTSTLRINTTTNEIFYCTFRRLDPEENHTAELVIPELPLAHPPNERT

`CCCC[C@H](NC(=O)[C@H](Cc1ccc(O)cc1)NC(=O)[C@H](CCC(N)=O)NC(=O)[C@]1(C)CCCC=CCCCCCC[C@@](C)(NC(=O)[C@H](CCC(=O)O)NC(=O)[C@H](CC(C)C)NC(=O)[C@@H](NC(C)=O)[C@@H](C)CC)C(=O)N[C@@H](Cc2ccc(O)cc2)C(=O)N[C@@H](CCC(=O)O)C(=O)N[C@@H](C)C(=O)N[C@@H](C)C(=O)N[C@@H](Cc2ccccc2)C(=O)N[C@@H](CCC(=O)O)C(=O)N1)C(N)=O` (single isomer, unassigned) [FP08017, Ac-Ile-Leu-Glu-R8-Tyr-Glu-Ala-Ala-Phe-Glu-S5-Gln-Tyr-nLeu-NH2] was tested, and the “Helicon in cells ± SD (%)” value [1] was 0.6 ± 0.1% and the “CellTiter-Glo fold change ± SD” value [2] was 1.2 ± 0.01.
With `CCCC[C@H](NC(=O)[C@H](Cc1ccc(O)cc1)NC(=O)[C@H](CCC(N)=O)NC(=O)[C@]1(C)CCCC=CCCCCCC[C@@](C)(NC(=O)[C@H](CCC(=O)O)NC(=O)[C@H](CC(C)C)NC(=O)[C@@H](NC(C)=O)[C@@H](C)CC)C(=O)N[C@@H](Cc2ccc(O)cc2)C(=O)N[C@@H](CCC(=O)O)C(=O)N[C@@H](C)C(=O)N[C@@H](C)C(=O)N[C@@H](Cc2ccccc2)C(=O)N[C@@H](CCC(=O)O)C(=O)N1)C(N)=O` (single isomer, unassigned) [FP08018, Ac-Ile-Leu-Glu-R8-Tyr-Glu-Ala-Ala-Phe-Glu-S5-Gln-Tyr-nLeu-NH2] the “Helicon in cells ± SD (%)” value [1] was 1.0 ± 0.1% and the “CellTiter-Glo fold change ± SD” value [2] was 1.1 ± 0.05.
`CC(=O)N[C@@H](CC(C)C)C(=O)N[C@H](C(=O)N[C@@H](Cc1ccccc1)C(=O)N[C@]1(C)CCCCCCC=CCCC[C@@](C)(C(=O)N[C@@H](CO)C(=O)N[C@@H](C)C(=O)N[C@@H](C)C(N)=O)NC(=O)[C@H](CC2CCC2)NC(=O)[C@H](CCC(N)=O)NC(=O)[C@H](C)NC(=O)[C@H](Cc2c[nH]c3ccccc23)NC(=O)[C@H](Cc2ccc(O)cc2)NC(=O)[C@H](CCC(=O)O)NC1=O)[C@@H](C)O` [FP01413, Ac-Leu-Thr-Phe-R8-Glu-Tyr-Trp-Ala-Gln-Cba-S5-Ser-Ala-Ala-NH2, reference compound] was tested, and the “Helicon in cells ± SD (%)” value [1] was 3.7 ± 0.4% and the “CellTiter-Glo fold change ± SD” value [2] was 1.2 ± 0.07.
In the case of `CC(C)C[C@H](NC(=O)[C@H](C)NC(=O)CNC(=O)[C@H](CCCCN)NC(=O)[C@H](CCCNC(=N)N)NC(=O)[C@H](C)NC(=O)[C@H](Cc1ccccc1)NC(=O)[C@H](CCCNC(=N)N)NC(=O)[C@H](CCC(N)=O)NC(=O)c1ccc2c(c1)C(=O)OC21c2ccc(O)cc2Oc2cc(O)ccc21)C(=O)N[C@@H](CCCNC(=N)N)C(=O)N[C@@H](CCC(N)=O)C(=O)N[C@@H](CCCCN)C(=O)N[C@@H](CC(N)=O)C(=O)N[C@H](C(N)=O)C(C)C` [FP47831, reference compound] (5FAM-QRFARKGALRQKNV-NH2), the “Helicon in cells ± SD (%)” value [1] is reported as 0.0 ± 0.0% and the “CellTiter-Glo fold change ± SD” value [2] is reported as 1.1 ± 0.02.
`CC(=O)N[C@@H](CC(=O)O)C(=O)N1CCC[C@H]1C(=O)N[C@@H](C)C(=O)N[C@@H](C)C(=O)N[C@@H](Cc1c[nH]cn1)C(=O)N[C@@H](CCCNC(=N)N)C(=O)N[C@H]1CSCC(=O)Nc2ccc(cc2)NC(=O)CSC[C@@H](C(=O)N[C@@H](CCC(=O)O)C(=O)N[C@@H](CC(C)C)C(=O)N[C@H](C(N)=O)C(C)C)NC(=O)[C@H](Cc2c[nH]cn2)NC(=O)[C@H](CC(C)C)NC(=O)[C@H](C)NC(=O)[C@H](C)NC(=O)[C@H](Cc2c[nH]c3ccccc23)NC(=O)[C@H](CCC(=O)O)NC1=O` [FP49250] (Ac-DPAAHRCEWAALHCELV-NH2; linker 7-14 via Phenylene(1,4-NHCOCH2)2) gave a Kd [3] of 1.4 ± 0.55 µM.
`CC(=O)N[C@@H](CC(=O)O)C(=O)N1CCC[C@H]1C(=O)N[C@@H](C)C(=O)N[C@H](C(=O)N[C@@H](C)C(=O)N[C@@H](CCCNC(=N)N)C(=O)N[C@H]1CSCC(=O)Nc2ccc(cc2)NC(=O)CSC[C@@H](C(=O)N[C@@H](CCC(=O)O)C(=O)N[C@@H](CC(C)C)C(=O)N[C@H](C(N)=O)C(C)C)NC(=O)[C@H](Cc2c[nH]cn2)NC(=O)[C@H](CC(C)C)NC(=O)[C@H](C)NC(=O)[C@H](C)NC(=O)[C@H](Cc2c[nH]c3ccccc23)NC(=O)[C@H](CCC(=O)O)NC1=O)[C@@H](C)O` [FP49251] (Ac-DPATARCEWAALHCELV-NH2; linker 7-14 via Phenylene(1,4-NHCOCH2)2) gave a Kd [3] of 0.4 ± 0.05 µM.
`CC(=O)N[C@@H](CC(=O)O)C(=O)N1CCC[C@H]1C(=O)N[C@@H](C)C(=O)N[C@H](C(=O)N[C@@H](Cc1c[nH]cn1)C(=O)N[C@@H](C)C(=O)N[C@H]1CSCC(=O)Nc2ccc(cc2)NC(=O)CSC[C@@H](C(=O)N[C@@H](CCC(=O)O)C(=O)N[C@@H](CC(C)C)C(=O)N[C@H](C(N)=O)C(C)C)NC(=O)[C@H](Cc2c[nH]cn2)NC(=O)[C@H](CC(C)C)NC(=O)[C@H](C)NC(=O)[C@H](C)NC(=O)[C@H](Cc2c[nH]c3ccccc23)NC(=O)[C@H](CCC(=O)O)NC1=O)[C@@H](C)O` [FP49252] (Ac-DPATHACEWAALHCELV-NH2; linker 7-14 via Phenylene(1,4-NHCOCH2)2) showed a Kd [3] of 0.3 ± 0.1 µM.
With `CC[C@H](C)[C@H](NC(=O)[C@H](C)NC(=O)[C@H](CCC(N)=O)NC(C)=O)C(=O)N[C@H]1CSCC(=O)Nc2ccc(cc2)NC(=O)CSC[C@@H](C(=O)N[C@@H](CC(C)C)C(=O)N[C@@H](C)C(=O)N[C@@H](CC(=O)O)C(=O)N[C@@H](CC(=O)O)C(=O)N[C@@H](Cc2c[nH]c3ccccc23)C(=O)N[C@H](C(N)=O)[C@@H](C)O)NC(=O)[C@H](CCSC)NC(=O)[C@H](Cc2c[nH]c3ccccc23)NC(=O)[C@H](C)NC(=O)[C@H](C)NC(=O)[C@H](CCC(N)=O)NC(=O)[C@H](Cc2ccccc2)NC1=O` [Helicon H331] the “promotion of interaction between MDM4 and β-catenin” value [4] was “not between MDM4 and β-catenin”.
With `CC[C@H](C)[C@H](NC(=O)[C@H](Cc1ccccc1)NC(=O)[C@H](Cc1ccc(O)cc1)NC(=O)[C@H](CC(C)C)NC(=O)[C@@H]1CSCC(=O)Nc2ccc(cc2)NC(=O)CSC[C@H](NC(=O)[C@H](CC(=O)O)NC(=O)[C@H](CCCNC(=N)N)NC(=O)[C@H](C)NC(=O)[C@H](CC(N)=O)NC(=O)[C@H](CCC(=O)O)NC(=O)[C@H](CO)NC(=O)[C@@H]2CCCN2C(C)=O)C(=O)N[C@@H](Cc2ccccc2)C(=O)N[C@@H](Cc2c[nH]c3ccccc23)C(=O)N[C@@H](C)C(=O)N[C@@H](C)C(=O)N[C@@H](Cc2c[nH]c3ccccc23)C(=O)N[C@@H](CC(=O)O)C(=O)N1)C(=O)N[C@@H](Cc1ccc(O)cc1)C(=O)N[C@@H](CCC(N)=O)C(N)=O` [Helicon H333] the “promotion of interaction between MDM4 and β-catenin” value [4] was “not between MDM4 and β-catenin”.
With “Ac-[5FAM]-Lys-Gln-Ser-Gln-Gln-Thr-Phe-R8-Asn-Leu-Trp-Arg-Leu-Leu-S5-Gln-Asn-NH2 (KQSQQTFXNLWRLLXQN; Ac, 5FAM, R8-S5 staple, C-terminal amide; SITE 1 Acetylated 5-Carboxyfluorescein modified residue; SITE 8 (R)-2-amino-2-methyldec-9-enoic acid, useful for stapling/stapled with another amino acid residue comprising an olefin group to form a staple through the olefin group; SITE 15 (S)-2-amino-2-methylhept-6-enoic acid, useful for stapling/stapled with another amino acid residue comprising an olefin group to form a staple through the olefi) [FP47839, reference compound]” the “Helicon in cells ± SD (%)” value [1] was 2.1 ± 0.1% and the “CellTiter-Glo fold change ± SD” value [2] was 1.3 ± 0.01.
In the case of DPAAADCQWAAFLCRVY, the “phage screen counts, Target Concentration 10” value ([5]; PD-L1, target concentration 10) is reported as 0, the “phage screen counts, Target Concentration 30” value ([5]; PD-L1, target concentration 30) is reported as 0 and the “phage screen counts, Target Concentration 100” value ([5]; PD-L1, target concentration 100) is reported as 12. For the same compound, the “phage screen counts, Target Concentration 300” value ([5]; PD-L1, target concentration 300) was 47, the “phage screen counts, Target Concentration 1000” value ([5]; PD-L1, target concentration 1000, first column) was 60 and the “phage screen counts, Target Concentration 1000” value ([5]; PD-L1, target concentration 1000, second column) was 62.
